Data published in ChEMBL document CHEMBL1142747, “Prostatic acid phosphatase in cloacal derivatives” (Bioorg Med Chem Lett, 2005).

Experiments:
[1] = Half life of ECA-ATL in buffer at pH 7.4; assay type: ADME
[2] = Half life of ECA-ATL in serum; assay type: ADME, cell-free; conditions: human

| Structure (SMILES) | half-life [1] [h] | half-life [2] [h] |
| --- | --- | --- |
| C=C(CC)C(=O)c1ccc(OCC(=O)OCCOCCOCCOCCOCCOCCO)c(Cl)c1Cl | 120 | < 0.0333 |
| C=C(CC)C(=O)c1ccc(OCC(=O)OC(CNC(C)C)COc2ccc(CC(N)=O)cc2)c(Cl)c1Cl (stereo not drawn) | 14 | 0.5 |
| C=C(CC)C(=O)c1ccc(OCC(=O)OCCOCCO)c(Cl)c1Cl | 110 | < 0.0333 |
| C=C(CC)C(=O)c1ccc(OCC(=O)OCCOCCOCCOCCO)c(Cl)c1Cl | 130 | < 0.0333 |
